According to PubChem BioAssay AID330 (DTP/NCI, 2004):
“And” between values parts separate entries of the source, which are not always exact repeats. Equal values may be shown once. Inconclusive results and toxic doses are left out. Rule for the calls: active = survival T/C of 150% or more; inactive = T/C below 125% in these data.

System: P388 leukemia ip, CD2F1 mice, survival T/C
Assay: NCI In Vivo Anticancer Drug Screen. Data for tumor model P388 Leukemia (intraperitoneal) in CD2F1 (CDF1) mice
Conditions: endpoint: median survival time, higher = longer survival
Summary of the method: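 Mice carrying the transplanted tumor received test compound or vehicle. Survival was recorded in each group, and the value is the treated-group measurement divided by that of the vehicle-treated control group.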

[1] = dose: 25.0 mg/kg/injection, schedule: Q01DX009 (ip), vehicle: saline with Tween-80
[2] = dose: 60.0 mg/kg/injection, schedule: Q01DX005 (ip), vehicle: saline with Tween-80
[3] = dose: 120.0 mg/kg/injection, schedule: Q01DX005 (ip), vehicle: saline with Tween-80
[4] = dose: 240.0 mg/kg/injection, schedule: Q01DX005 (ip), vehicle: saline with Tween-80
[5] = dose: 100.0 mg/kg/injection, schedule: Q04DX003 (ip), vehicle: Klucel (hydroxypropylcellulose) (HPC)

Measured: T/C

[N-]=[N+]=Nc1ccc(NCCN2C(=O)C=CC2=O)c([N+](=O)[O-])c1
inactive: dose: 50.0 mg/kg/injection, schedule: Q01DX005 (ip), vehicle: saline with Tween-80 103 % of control | dose: 100.0 mg/kg/injection, schedule: Q01DX005 (ip), vehicle: saline with Tween-80 101 % of control | dose: 200.0 mg/kg/injection, schedule: Q01DX005 (ip), vehicle: saline with Tween-80 101 % of control

CCOP(=S)(N/N=C/c1ccc(Cl)s1)OCC
inactive: dose: 50.0 mg/kg/injection, schedule: Q01DX005 (ip), vehicle: Klucel (hydroxypropylcellulose) (HPC) 115 % of control | dose: 100.0 mg/kg/injection, schedule: Q01DX005 (ip), vehicle: Klucel (hydroxypropylcellulose) (HPC) 110 % of control | dose: 200.0 mg/kg/injection, schedule: Q01DX005 (ip), vehicle: Klucel (hydroxypropylcellulose) (HPC) 114 % of control

CC(C)(C=O)CNC(C)(C)C
inactive: [1] 110 % of control | dose: 50.0 mg/kg/injection, schedule: Q01DX009 (ip), vehicle: saline with Tween-80 100 % of control and 108 % of control | dose: 100.0 mg/kg/injection, schedule: Q01DX009 (ip), vehicle: saline with Tween-80 103 % of control and 105 % of control | dose: 200.0 mg/kg/injection, schedule: Q01DX009 (ip), vehicle: saline with Tween-80 91 % of control and 103 % of control

C[C@H]1C(=O)OCN1C(=O)OCc1ccccc1
inactive: [2] 100 % of control | [3] 100 % of control | [4] 95 % of control

Cc1cc(C)c(CCl)cc1CCl
inactive: dose: 20.0 mg/kg/injection, schedule: Q04DX003 (ip), vehicle: saline with Tween-80 113 % of control | dose: 40.0 mg/kg/injection, schedule: Q04DX003 (ip), vehicle: saline with Tween-80 118 % of control | dose: 80.0 mg/kg/injection, schedule: Q04DX003 (ip), vehicle: saline with Tween-80 90 % of control

Cc1cc2nc(C(C)C(=O)c3ccc(Cl)cc3)c(=O)[nH]c2cc1C (stereo not given)
inactive: dose: 1.88 mg/kg/injection, schedule: Q01DX005 (ip), vehicle: saline with Tween-80 100 % of control | dose: 3.75 mg/kg/injection, schedule: Q01DX005 (ip), vehicle: saline with Tween-80 104 % of control | dose: 7.5 mg/kg/injection, schedule: Q01DX005 (ip), vehicle: saline with Tween-80 86 % of control

CC(O)c1cccc(C(C)(C)O)c1Sc1c(C(C)(C)O)cccc1C(C)(C)O (stereo not given)
inactive: [5] 99 % of control | dose: 200.0 mg/kg/injection, schedule: Q04DX003 (ip), vehicle: Klucel (hydroxypropylcellulose) (HPC) 98 % of control | dose: 400.0 mg/kg/injection, schedule: Q04DX003 (ip), vehicle: Klucel (hydroxypropylcellulose) (HPC) 97 % of control

CC(=O)c1c(C)[nH]c2c1[nH]c1ccccc12
inactive: dose: 60.0 mg/kg/injection, schedule: Q01DX005 (ip), vehicle: Klucel (hydroxypropylcellulose) (HPC) 93 % of control | dose: 120.0 mg/kg/injection, schedule: Q01DX005 (ip), vehicle: Klucel (hydroxypropylcellulose) (HPC) 101 % of control

CCOC(=O)c1[nH]cnc1/N=N/N(C)CCO
inactive: dose: 100.0 mg/kg/injection, schedule: Q04DX003 (ip), vehicle: saline with Tween-80 109 % of control | dose: 200.0 mg/kg/injection, schedule: Q04DX003 (ip), vehicle: saline with Tween-80 113 % of control | dose: 400.0 mg/kg/injection, schedule: Q04DX003 (ip), vehicle: saline with Tween-80 118 % of control

O=C1CCC(c2nc(=S)[nH][nH]2)N1Cc1ccccc1 (stereo not given)
inactive: [2] 101 % of control | [3] 102 % of control | [4] 101 % of control

CCc1nc(N)nc(N)c1-c1ccc(Cl)cc1.[O]=[Zn]
inactive: dose: 12.5 mg/kg/injection, schedule: Q04DX003 (ip), vehicle: Klucel (hydroxypropylcellulose) (HPC) 106 % of control | dose: 25.0 mg/kg/injection, schedule: Q04DX003 (ip), vehicle: Klucel (hydroxypropylcellulose) (HPC) 106 % of control | dose: 50.0 mg/kg/injection, schedule: Q04DX003 (ip), vehicle: Klucel (hydroxypropylcellulose) (HPC) 113 % of control | [5] 117 % of control

O=S(=O)(c1ccc(Cl)c(Cl)c1)N(c1cccc(C(F)(F)F)c1)S(=O)(=O)c1ccc(Cl)c(Cl)c1
inactive: dose: 6.25 mg/kg/injection, schedule: Q01DX009 (ip), vehicle: saline with Tween-80 100 % of control | dose: 12.5 mg/kg/injection, schedule: Q01DX009 (ip), vehicle: saline with Tween-80 94 % of control | [1] 97 % of control

O=[N+]([O-])c1ccccc1S(=O)(=O)N(CCCCN(S(=O)(=O)c1ccccc1[N+](=O)[O-])S(=O)(=O)c1ccccc1[N+](=O)[O-])S(=O)(=O)c1ccccc1[N+](=O)[O-]
inactive: [2] 93 % of control | [3] 91 % of control | [4] 87 % of control
